Assay results published in US20230126569A1, “COMPOSITION FOR […] OF SARS-CoV-2 TO ACE2 PROTEIN” (priority 2020, published 2023).
Where “and” joins values, the source holds several entries; their conditions need not be identical. Equal values may be shown once.

Key:
[1] = target: T1, binding between the spike protein of SARS-CoV-2 and the ACE2 protein (Severe acute respiratory syndrome coronavirus 2, UniProt P0DTC2)
[2] = target: T1, binding between the spike protein of SARS-CoV-2 and the ACE2 protein; remark: listed apart in the source

`[O][Cl+][O-]` [Chlorine Dioxide, chlorine dioxide] was tested, and the “binding between the spike protein and the ACE2 protein” value [1] was “significantly reduced” and the “Luminescence Intensity (counts/sec × 1000, average ± standard deviation, n = 3)” value [2] was 1322 ± 45 counts/sec × 1000 and 1072 ± 47 counts/sec × 1000.
